Assay results as given in US12173018B2, “Penicillin-binding protein inhibitors” (priority 2018, dated 2024).
Read-outs that look alike come from different tables or passages of the source.

How the values were obtained:
E. coli PBP2 = E. coli PBP2 (Escherichia coli (strain K12), UniProt P0AD65); assay: E. coli PBP2 Bocillin-FL fluorescence polarization competition binding assay
Summary of the method: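 Fluorescence polarization competition with Bocillin-FL (0.1 μM final) and purified PBP2 (1.5 μM final) in 50 mM Hepes pH 8.0, 300 mM NaCl, 5% glycerol. FP (ex 490/em 520 nm) read for 90 min after Bocillin-FL addition; EC50 is the inhibitor concentration reducing Bocillin-FL binding by half.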

E. coli PBP3 = E. coli PBP3 (Escherichia coli (strain K12), UniProt P0AD68); assay: E. coli PBP3 Bocillin-FL fluorescence polarization competition binding assay
Sequence of E. coli PBP3 (P0AD68 whole entry): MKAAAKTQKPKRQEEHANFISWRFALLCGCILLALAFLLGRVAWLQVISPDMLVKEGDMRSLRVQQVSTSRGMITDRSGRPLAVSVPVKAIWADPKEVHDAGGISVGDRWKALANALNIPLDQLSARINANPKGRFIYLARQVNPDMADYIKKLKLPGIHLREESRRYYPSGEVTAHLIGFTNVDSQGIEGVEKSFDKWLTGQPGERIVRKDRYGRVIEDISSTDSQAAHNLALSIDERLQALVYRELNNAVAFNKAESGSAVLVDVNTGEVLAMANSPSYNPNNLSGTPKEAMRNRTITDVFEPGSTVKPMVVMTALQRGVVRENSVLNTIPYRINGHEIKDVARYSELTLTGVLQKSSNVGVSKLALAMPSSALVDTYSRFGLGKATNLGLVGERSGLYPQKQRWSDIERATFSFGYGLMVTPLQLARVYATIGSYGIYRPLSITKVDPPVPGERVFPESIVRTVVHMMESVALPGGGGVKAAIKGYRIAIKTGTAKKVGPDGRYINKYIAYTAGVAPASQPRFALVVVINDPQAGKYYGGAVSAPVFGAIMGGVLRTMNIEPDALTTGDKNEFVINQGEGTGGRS
Summary of the method: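 Purified PBP (1.5 μM final) was combined with test compound (0–1000 μM) and Bocillin-FL (fluorescent penicillin V, 0.1 μM final) in 50 mM Hepes pH 8.0, 300 mM NaCl, 5% glycerol.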

[1] = test system: P. aeruginosa (ΔmexAB-oprM); assay: microbe, parasite or virus in culture; type: cell-based; settings: Pseudomonas aeruginosa, read-out: MIC P. aeruginosa ΔmexAB-OprM
Summary of the method: (§1)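 MIC = lowest concentration showing no visible growth after 16-20 h at 37° C. Cation-adjusted MH broth, 2-fold serial dilutions, starting inoculum 5×10^5 CFU/mL, per CLSI methods.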

P. aeruginosa ATCC 35151 = assay: microbe, parasite or virus in culture; type: cell-based; settings: Pseudomonas aeruginosa, ATCC35151; hyper-permeable P. aeruginosa ATCC 35151; read-out: MIC P. aeruginosa ATCC 35151
Summary of the method: as §1

P. aeruginosa PAO1 = assay: Broth microdilution MIC, P. aeruginosa PAO1; type: cell-based; settings: Pseudomonas aeruginosa; P. aeruginosa PAO1, broth microdilution; read-out: MIC P. aeruginosa PAO1
Summary of the method: as §1

A. baumannii ATCC 19606 = assay: Broth microdilution MIC, A. baumannii ATCC 19606; type: cell-based; settings: Acinetobacter baumannii, ATCC19606; A. baumannii ATCC 19606, broth microdilution; read-out: MIC A. baumannii ATCC 19606
Summary of the method: as §1

[2] = fluorescence polarization competition binding with Bocillin-FL, read-out: E. coli K12 PBP2 Potency (EC50)
[3] = fluorescence polarization competition binding with Bocillin-FL, read-out: E. coli K12 PBP3 Potency

Sequence of E. coli PBP2 (P0AD65 whole entry): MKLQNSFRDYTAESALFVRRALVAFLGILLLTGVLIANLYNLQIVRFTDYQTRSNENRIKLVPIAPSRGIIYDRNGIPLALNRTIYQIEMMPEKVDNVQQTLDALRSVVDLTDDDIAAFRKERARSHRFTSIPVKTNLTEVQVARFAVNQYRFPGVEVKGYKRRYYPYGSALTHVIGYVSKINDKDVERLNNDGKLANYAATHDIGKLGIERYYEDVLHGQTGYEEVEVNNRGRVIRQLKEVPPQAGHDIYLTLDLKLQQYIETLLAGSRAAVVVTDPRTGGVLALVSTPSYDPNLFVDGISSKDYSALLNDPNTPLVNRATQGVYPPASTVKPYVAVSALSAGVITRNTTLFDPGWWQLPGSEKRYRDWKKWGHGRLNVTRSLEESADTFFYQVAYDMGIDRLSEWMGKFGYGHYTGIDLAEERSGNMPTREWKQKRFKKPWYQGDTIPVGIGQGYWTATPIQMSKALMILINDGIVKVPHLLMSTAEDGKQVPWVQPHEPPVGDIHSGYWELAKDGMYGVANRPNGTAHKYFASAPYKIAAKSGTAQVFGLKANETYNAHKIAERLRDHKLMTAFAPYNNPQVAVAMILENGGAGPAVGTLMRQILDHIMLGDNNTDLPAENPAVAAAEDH

Compound | EC50 (E. coli PBP2; [2]) | EC50 (E. coli PBP3) | EC50 (E. coli PBP3; [3]) | EC50 (E. coli PBP2) | MIC [1] | MIC (P. aeruginosa ATCC 35151) | MIC (P. aeruginosa PAO1) | MIC (A. baumannii ATCC 19606)
CCN1CCN(C(=O)NC(C(=O)N[C@H]2Cc3cccc(C(=O)O)c3OB2O)c2csc(N)n2)C(=O)C1=O (stereo partly drawn) [Example 5, (3R)-3-(2-(2-aminothiazol-4-yl)-2-(4-ethyl-2,3-dioxopiperazine-1-carboxamido)acetamido)-2-hydroxy-3,4-dihydro-2H-benzo[e][1,2]oxaborinine-8-carboxylic acid] | 30 to 500 µM |  |  |  |  |  |  | 
CCN1CCN(C(=O)NC(C(=O)N[C@H]2Cc3cc(F)cc(C(=O)O)c3OB2O)c2csc(N)n2)C(=O)C1=O (stereo partly drawn) [Example 16, (3R)-3-(2-(2-aminothiazol-4-yl)-2-(4-ethyl-2,3-dioxopiperazine-1-carboxamido)acetamido)-6-fluoro-2-hydroxy-3,4-dihydro-2H-benzo[e][1,2]oxaborinine-8-carboxylic acid] | > 500 µM | 30 to 500 µM |  |  |  |  |  | 
CCN1CCN(C(=O)NC(C(=O)N[C@H]2Cc3cccc(C(=O)O)c3OB2O)c2ccc(O)cc2)C(=O)C1=O (stereo partly drawn) [Example 27, (3R)-3-(2-(4-ethyl-2,3-dioxopiperazine-1-carboxamido)-2-(4-hydroxyphenyl)acetamido)-2-hydroxy-3,4-dihydro-2H-benzo[e][1,2]oxaborinine-8-carboxylic acid] | > 500 µM | 30 to 500 µM |  |  |  |  |  | 
CCN1CCN(C(=O)NC(C(=O)N[C@H]2Cc3cccc(C(=O)O)c3OB2O)c2cnc(N)s2)C(=O)C1=O (stereo partly drawn) [Example 51, (3R)-3-(2-(2-aminothiazol-5-yl)-2-(4-ethyl-2,3-dioxopiperazine-1-carboxamido)acetamido)-2-hydroxy-3,4-dihydro-2H-benzo[e][1,2]oxaborinine-8-carboxylic acid] | > 500 µM | 30 to 500 µM |  |  |  |  |  | 
CCN1CCN(C(=O)NC(C(=O)N[C@H]2Cc3cccc(C(=O)O)c3OB2O)c2ccc(O)cc2F)C(=O)C1=O (stereo partly drawn) [Example 87, (3R)-3-(2-(4-ethyl-2,3-dioxopiperazine-1-carboxamido)-2-(2-fluoro-4-hydroxyphenyl)acetamido)-2-hydroxy-3,4-dihydro-2H-benzo[e][1,2]oxaborinine-8-carboxylic acid] | > 500 µM |  | < 30 µM |  |  |  |  | 
CCN1CCN(C(=O)NC(C(=O)N[C@H]2Cc3cccc(C(=O)O)c3OB2O)c2cc(O)c(O)cc2F)C(=O)C1=O (stereo partly drawn) [Example 90, (3R)-3-(2-(4-ethyl-2,3-dioxopiperazine-1-carboxamido)-2-(2-fluoro-4,5-dihydroxyphenyl)acetamido)-2-hydroxy-3,4-dihydro-2H-benzo[e][1,2]oxaborinine-8-carboxylic acid] | > 500 µM |  | < 30 µM |  |  |  |  | 
CCN1CCN(C(=O)NC(C(=O)N[C@H]2Cc3cccc(C(=O)O)c3OB2O)c2ccc(S(N)(=O)=O)cc2)C(=O)C1=O (stereo partly drawn) [Example 102, (3R)-3-(2-(4-ethyl-2,3-dioxopiperazine-1-carboxamido)-2-(4-sulfamoylphenyl)acetamido)-2-hydroxy-3,4-dihydro-2H-benzo[e][1,2]oxaborinine-8-carboxylic acid] | > 500 µM |  | < 30 µM |  |  |  |  | 
NS(=O)(=O)c1ccc(C(NC(=O)N2CCN(CCF)C(=O)C2=O)C(=O)N[C@H]2Cc3cccc(C(=O)O)c3OB2O)cc1 (stereo partly drawn) [Example 103, (3R)-3-(2-(4-(2-fluoroethyl)-2,3-dioxopiperazine-1-carboxamido)-2-(4-sulfamoylphenyl)acetamido)-2-hydroxy-3,4-dihydro-2H-benzo[e][1,2]oxaborinine-8-carboxylic acid] | > 500 µM |  | < 30 µM |  |  |  |  | 
CCN1CCN(C(=O)NC(C(=O)N[C@H]2Cc3cccc(C(=O)O)c3OB2O)c2cccc(N)n2)C(=O)C1=O (stereo partly drawn) [Example 104, (3R)-3-(2-(6-aminopyridin-2-yl)-2-(4-ethyl-2,3-dioxopiperazine-1-carboxamido)acetamido)-2-hydroxy-3,4-dihydro-2H-benzo[e][1,2]oxaborinine-8-carboxylic acid] |  |  | < 30 µM | 30 to 500 µM |  |  |  | 
CCN1CCN(C(=O)NC(C(=O)N[C@H]2Cc3ccc(F)c(C(=O)O)c3OB2O)c2csc(N)n2)C(=O)C1=O (stereo partly drawn) [Example 109, (3R)-3-(2-(2-aminothiazol-4-yl)-2-(4-ethyl-2,3-dioxopiperazine-1-carboxamido)acetamido)-7-fluoro-2-hydroxy-3,4-dihydro-2H-benzo[e][1,2]oxaborinine-8-carboxylic acid] | > 500 µM |  | < 30 µM |  |  |  |  | 
CCN1CCN(C(=O)N[C@@H](C(=O)N[C@H]2Cc3ccc(F)c(C(=O)O)c3OB2O)[C@@H](C)O)C(=O)C1=O [Example 110, (R)-3-((2R,3R)-2-(4-ethyl-2,3-dioxopiperazine-1-carboxamido)-3-hydroxybutanamido)-7-fluoro-2-hydroxy-3,4-dihydro-2H-benzo[e][1,2]oxaborinine-8-carboxylic acid] | > 500 µM | 30 to 500 µM |  |  |  |  |  | 
CCN1CCN(C(=O)NC(C(=O)N[C@H]2Cc3cccc(C(=O)O)c3OB2O)c2cccc(O)n2)C(=O)C1=O (stereo partly drawn) [Example 117, (3R)-3-(2-(4-ethyl-2,3-dioxopiperazine-1-carboxamido)-2-(6-hydroxypyridin-2-yl)acetamido)-2-hydroxy-3,4-dihydro-2H-benzo[e][1,2]oxaborinine-8-carboxylic acid] | > 500 µM | 30 to 500 µM |  |  |  |  |  | 
CCN1CCN(C(=O)NC(C(=O)N[C@H]2Cc3cccc(C(=O)O)c3OB2O)c2cnc(O)cn2)C(=O)C1=O (stereo partly drawn) [Example 121, (3R)-3-(2-(4-ethyl-2,3-dioxopiperazine-1-carboxamido)-2-(5-hydroxypyrazin-2-yl)acetamido)-2-hydroxy-3,4-dihydro-2H-benzo[e][1,2]oxaborinine-8-carboxylic acid] | > 500 µM | 30 to 500 µM |  |  |  |  |  | 
O=C(O)c1c(F)ccc2c1OB(O)[C@@H](NC(=O)C(NC(=O)N1CCN(CCF)C(=O)C1=O)c1ccc(O)c(O)c1Cl)C2 (stereo partly shown) [Example 131] | > 500 µM | 30 to 500 µM |  |  | < 0.25 µg/mL | < 0.25 µg/mL | 0.5 to 1 µg/mL | 8 to 16 µg/mL
CCN1CCN(C(=O)NC(C(=O)N[C@H]2Cc3cccc(C(=O)O)c3OB2O)c2ncc(O)cc2F)C(=O)C1=O (stereo partly drawn) [Example 135, (3R)-3-(2-(4-ethyl-2,3-dioxopiperazine-1-carboxamido)-2-(3-fluoro-5-hydroxypyridin-2-yl)acetamido)-2-hydroxy-3,4-dihydro-2H-benzo[e][1,2]oxaborinine-8-carboxylic acid] | 30 to 500 µM |  | < 30 µM |  |  |  |  | 
CCN1CCN(C(=O)NC(C(=O)N[C@H]2Cc3cccc(C(=O)O)c3OB2O)c2ncc(O)cc2Cl)C(=O)C1=O (stereo partly drawn) [Example 150, (3R)-3-(2-(4-ethyl-2,3-dioxopiperazine-1-carboxamido)-2-(3-chloro-5-hydroxypyridin-2-yl)acetamido)-2-hydroxy-3,4-dihydro-2H-benzo[e][1,2]oxaborinine-8-carboxylic acid] | > 500 µM |  | < 30 µM |  | 32 to 64 µg/mL | 2 to 4 µg/mL | > 128 µg/mL | > 128 µg/mL
CCN1CCN(C(=O)NC(C(=O)N[C@H]2Cc3ccc(F)c(C(=O)O)c3OB2O)c2ncc(O)cc2Cl)C(=O)C1=O (stereo partly drawn) [Example 151, (3R)-3-(2-(3-chloro-5-hydroxypyridin-2-yl)-2-(4-ethyl-2,3-dioxopiperazine-1-carboxamido)acetamido)-7-fluoro-2-hydroxy-3,4-dihydro-2H-benzo[e][1,2]oxaborinine-8-carboxylic acid] | > 500 µM |  | < 30 µM |  | 8 to 16 µg/mL | < 0.25 µg/mL | > 128 µg/mL | > 128 µg/mL
CS(=O)(=O)NCCN1CCN(C(=O)NC(C(=O)N[C@H]2Cc3cccc(C(=O)O)c3OB2O)c2ccc(O)c(O)c2Cl)C(=O)C1=O (stereo partly drawn) [Example 229, (3R)-3-(2-(2-chloro-3,4-dihydroxyphenyl)-2-(4-(2-(methylsulfonamido)ethyl)-2,3-dioxopiperazine-1-carboxamido)acetamido)-2-hydroxy-3,4-dihydro-2H-benzo[e][1,2]oxaborinine-8-carboxylic acid] |  |  | < 30 µM |  | < 0.25 µg/mL | < 0.25 µg/mL | 2 to 4 µg/mL | < 0.25 µg/mL
NCCN1CCN(C(=O)N[C@@H](C(=O)N[C@H]2Cc3ccc(F)c(C(=O)O)c3OB2O)c2ncc(O)cc2F)C(=O)C1=O [Example 230, (R)-3-((R)-2-(4-(2-aminoethyl)-2,3-dioxopiperazine-1-carboxamido)-2-(3-fluoro-5-hydroxypyridin-2-yl)acetamido)-7-fluoro-2-hydroxy-3,4-dihydro-2H-benzo[e][1,2]oxaborinine-8-carboxylic acid] |  |  | < 30 µM |  | 2 to 4 µg/mL | < 0.25 µg/mL | 32 to 64 µg/mL | > 128 µg/mL
